In ChEMBL document CHEMBL1201862, “PubChem BioAssay data set” (2004):
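Method: 48-hour compound exposure of cells in 96-well plates, five concentrations, linear interpolation of endpoints. Here, GI50 denotes the concentration required for 50% inhibition of growth.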 Activity calls are given as the source filed them. No stated cut-off is given here; in the data, active = GI50 up to about 1.1 µM and inactive = higher.

Experiments:
Assay in all cases: growth of human tumour cells (NCI), 48 h
[1] = system: 786-0
[2] = system: A498
[3] = system: A549
[4] = system: ACHN
[5] = system: BT-549
[6] = system: CAKI-1
[7] = system: CCRF-CEM
[8] = system: COLO 205
[9] = system: DU-145
[10] = system: EKVX
[11] = system: HCC 2998
[12] = system: HCT-116
[13] = system: HCT-15
[14] = system: HL-60
[15] = system: HOP-62
[16] = system: HOP-92
[17] = system: HT-29
[18] = system: Hs-578T
[19] = system: IGROV-1
[20] = system: K562
[21] = system: LOX IMVI
[22] = system: M14
[23] = system: MCF7
[24] = system: MDA-MB-231
[25] = system: MDA-MB-435
[26] = system: MDA-N
[27] = system: Malme-3M
[28] = system: NCI-H226
[29] = system: NCI-H23
[30] = system: NCI-H460
[31] = system: NCI-H522
[32] = system: NCI/ADR-RES
[33] = system: OVCAR-3
[34] = system: OVCAR-4
[35] = system: OVCAR-5
[36] = system: OVCAR-8
[37] = system: PC-3
[38] = system: RXF 393
[39] = system: SF-268
[40] = system: SF-295
[41] = system: SF-539
[42] = system: SK-MEL-28
[43] = system: SK-MEL-2
[44] = system: SK-MEL-5
[45] = system: SK-OV-3
[46] = system: SN12C
[47] = system: SNB-19
[48] = system: SNB-75
[49] = system: SR
[50] = system: SW-620
[51] = system: TK-10
[52] = system: U-251
[53] = system: UACC-257
[54] = system: UACC-62
[55] = system: UO-31

CC1=C(C#N)c2nc3ccccc3n2C(=O)C1(C)CCO (stereo not given)
GI50 [1]: > 100 µM (inactive) | GI50 [2]: > 100 µM (inactive) | GI50 [3]: > 100 µM (inactive) | GI50 [4]: > 100 µM (inactive) | GI50 [5]: > 100 µM (inactive) | GI50 [6]: > 100 µM (inactive) | GI50 [7]: > 100 µM (inactive) | GI50 [8]: > 100 µM (inactive) | GI50 [9]: > 100 µM (inactive) | GI50 [10]: > 100 µM (inactive) | GI50 [11]: > 100 µM (inactive) | GI50 [12]: > 100 µM (inactive) | GI50 [13]: > 100 µM | GI50 [14]: > 100 µM (inactive) | GI50 [15]: > 100 µM (inactive) | GI50 [16]: > 100 µM (inactive) | GI50 [17]: > 100 µM (inactive) | GI50 [18]: > 100 µM (inactive) | GI50 [19]: > 100 µM (inactive) | GI50 [20]: > 100 µM (inactive) | GI50 [21]: > 100 µM (inactive) | GI50 [22]: > 100 µM (inactive) | GI50 [23]: > 100 µM (inactive) | GI50 [24]: > 100 µM (inactive) | GI50 [25]: > 100 µM (inactive) | GI50 [26]: > 100 µM (inactive) | GI50 [27]: > 100 µM (inactive) | GI50 [28]: > 100 µM (inactive) | GI50 [29]: > 100 µM (inactive) | GI50 [30]: > 100 µM (inactive) | GI50 [31]: > 100 µM (inactive) | GI50 [32]: > 100 µM (inactive) | GI50 [33]: > 100 µM (inactive) | GI50 [34]: > 100 µM (inactive) | GI50 [35]: > 100 µM (inactive) | GI50 [36]: > 100 µM (inactive) | GI50 [37]: > 100 µM (inactive) | GI50 [38]: > 100 µM (inactive) | GI50 [39]: > 100 µM (inactive) | GI50 [40]: > 100 µM (inactive) | GI50 [41]: > 100 µM (inactive) | GI50 [42]: > 100 µM (inactive) | GI50 [43]: > 100 µM (inactive) | GI50 [44]: > 100 µM (inactive) | GI50 [45]: > 100 µM (inactive) | GI50 [46]: > 100 µM (inactive) | GI50 [47]: > 100 µM (inactive) | GI50 [48]: > 100 µM (inactive) | GI50 [49]: 24.3 µM (inactive) | GI50 [50]: > 100 µM (inactive) | GI50 [51]: > 100 µM (inactive) | GI50 [52]: > 100 µM (inactive) | GI50 [53]: > 100 µM (inactive) | GI50 [54]: > 100 µM (inactive) | GI50 [55]: > 100 µM (inactive)
